Results from article PMC5964007 (Nature chemical biology, 2018).

Columns and labels:
[1] = target: T1, E. coli penicillin amidase (Escherichia coli, UniProt P06875); assay: pH-shift colorimetric kinetic assay; type: biochemical; settings: pH 8.4, 10 mM m-nitrophenol, 25 °C, 5 U/ml enzyme
[2] = target: T1, E. coli penicillin amidase; assay: pH-shift colorimetric kinetic assay; type: biochemical; settings: 5 mM MOPS pH 7.2, 25 °C

T1 sequence (P06875 27-235): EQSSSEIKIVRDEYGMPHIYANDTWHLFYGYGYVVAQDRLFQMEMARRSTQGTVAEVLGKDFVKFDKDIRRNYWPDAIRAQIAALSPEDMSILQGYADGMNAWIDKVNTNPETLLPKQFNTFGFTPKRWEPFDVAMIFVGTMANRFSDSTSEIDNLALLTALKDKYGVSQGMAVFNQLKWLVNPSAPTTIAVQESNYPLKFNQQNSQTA
T1 sequence (P06875 290-846): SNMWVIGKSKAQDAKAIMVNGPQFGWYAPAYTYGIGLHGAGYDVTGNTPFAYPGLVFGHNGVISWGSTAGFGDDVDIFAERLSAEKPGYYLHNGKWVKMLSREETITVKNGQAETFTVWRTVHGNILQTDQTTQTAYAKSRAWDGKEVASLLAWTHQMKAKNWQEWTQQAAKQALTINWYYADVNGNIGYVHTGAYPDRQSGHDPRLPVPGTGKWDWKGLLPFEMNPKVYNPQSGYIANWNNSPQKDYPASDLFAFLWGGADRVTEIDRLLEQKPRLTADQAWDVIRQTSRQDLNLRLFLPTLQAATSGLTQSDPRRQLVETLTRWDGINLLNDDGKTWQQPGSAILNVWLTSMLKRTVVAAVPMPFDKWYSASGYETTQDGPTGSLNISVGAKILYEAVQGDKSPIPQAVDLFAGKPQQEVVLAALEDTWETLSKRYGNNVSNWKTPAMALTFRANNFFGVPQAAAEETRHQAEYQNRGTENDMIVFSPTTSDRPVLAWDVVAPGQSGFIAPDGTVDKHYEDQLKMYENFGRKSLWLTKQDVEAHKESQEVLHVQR

Row | Structure (SMILES) | pH-shift colorimetric kinetic assay (m-nitrophenol); LCMS [1] | pH-shift colorimetric kinetic assay (p-nitrophenol) [2]
1 | CC1(C)S[C@H]([C@H](NC(=O)Cc2ccccc2)C(=O)O)N[C@H]1C(=O)O [benzylpenicilloic acid] | when both Put1 and E. coli penicillin amidase were incubated with benzylpenicilloic acid as a substrate | –
2 | CC1(C)S[C@@H]2[C@H](NC(=O)Cc3ccccc3)C(=O)N2[C@H]1C(=O)O [penicillin] | – | E. coli penicillin amidase and commercial B. cereus β-lactamase enzymes exhibit Michaelis-Menten kinetics with penicillin
